Data published in ChEMBL document CHEMBL1781960, “Discovery of non-glycoside sodium-dependent glucose co-transporter 2 (SGLT2) inhibitors by ligand-based virtual screening” (J Med Chem, 2010).

Each compound was assayed against T1, Sodium/glucose cotransporter 2 (Homo sapiens, UniProt P31639) (assay: (§1) Inhibition of human SGLT2 expressed in CHO-K1 cells assessed as reduction in [14C]-alpha-methylglucopyranoside uptake after 2 hrs by liquid scintillation counting).
T1 sequence (P31639 whole entry): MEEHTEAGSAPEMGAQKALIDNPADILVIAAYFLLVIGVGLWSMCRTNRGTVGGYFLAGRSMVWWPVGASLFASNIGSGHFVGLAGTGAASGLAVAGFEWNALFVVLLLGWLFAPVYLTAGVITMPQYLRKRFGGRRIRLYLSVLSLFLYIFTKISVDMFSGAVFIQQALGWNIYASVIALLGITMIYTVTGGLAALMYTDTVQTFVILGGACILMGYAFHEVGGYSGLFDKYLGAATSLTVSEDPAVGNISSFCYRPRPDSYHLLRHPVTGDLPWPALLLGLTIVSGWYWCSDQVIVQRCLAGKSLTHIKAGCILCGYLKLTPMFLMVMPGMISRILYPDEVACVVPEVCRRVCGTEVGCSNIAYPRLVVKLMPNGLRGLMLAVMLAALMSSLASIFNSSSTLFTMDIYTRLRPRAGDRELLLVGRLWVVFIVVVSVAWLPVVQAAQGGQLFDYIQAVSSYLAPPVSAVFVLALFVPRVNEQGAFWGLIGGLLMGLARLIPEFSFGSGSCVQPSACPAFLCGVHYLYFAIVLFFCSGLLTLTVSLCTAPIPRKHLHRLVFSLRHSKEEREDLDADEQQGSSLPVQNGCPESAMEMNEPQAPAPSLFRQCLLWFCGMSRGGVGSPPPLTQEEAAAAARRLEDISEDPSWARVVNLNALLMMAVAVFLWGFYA
Format: cell-based

Structure (SMILES) | EC50 [µM]
OC[C@H]1O[C@@H](n2cc(Cc3ccc(C4CC4)cc3)c3c(Cl)cccc32)[C@H](O)[C@@H](O)[C@@H]1O | 0.0023
N=c1n(Cc2ccccc2)c2ccccc2n1CC(O)c1cccs1 (stereo not drawn) | 19.1
OC[C@H]1O[C@@H](n2cc(Cc3ccc(C4CC4)cc3)c3c(F)cc(F)cc32)[C@H](O)[C@@H](O)[C@@H]1O | 0.0028
N=c1n(CCO)c2ccccc2n1Cc1ccc(Cl)cc1 | 31.1
COc1ccc(C(O)Cn2c(=N)n(Cc3ccccc3)c3ccccc32)cc1 (stereo not drawn) | 16.2
C=CCn1c(=N)n(CC(O)C(C)(C)C)c2ccccc21 (stereo not drawn) | 40.4
CC(C)(C)C(O)Cn1c(=N)n(CCN2CCCCC2)c2ccccc21 (stereo not drawn) | > 50
N=c1n(Cc2ccccc2)c2ccccc2n1CC(O)c1ccco1 (stereo not drawn) | 34.7
N=c1n(CC(=O)O)c2ccccc2n1Cc1ccc(Cl)cc1 | > 50
COc1ccc(NC(=S)NNC(=O)c2cc(-c3ccccc3)sc2N)cc1 | 8.98
N=c1n(Cc2ccc(Cl)cc2)c2ccccc2n1CC(O)c1ccco1 (stereo not drawn) | 11
N=c1n(CCO)c2ccccc2n1Cc1ccccc1 | > 50
OC[C@H]1O[C@@H](n2cc(Cc3ccc(C4CC4)cc3)c3c(F)cccc32)[C@H](O)[C@@H](O)[C@@H]1O | 0.0019

The remaining lines, values ahead:

EC50 [µM] | Structure (SMILES)
0.024 | OC[C@H]1O[C@@H](Oc2cccc3[nH]cc(CCc4ccc5c(c4)CCO5)c23)[C@H](O)[C@@H](O)[C@@H]1O
5.92 | COc1cc(C(Nc2cccc(C)n2)c2ccc3ccc(C)nc3c2O)cc(OC)c1OC (stereo not drawn)
0.067 | Cn1cc(CCc2ccc3c(c2)CCO3)c2c(O[C@@H]3O[C@H](CO)[C@@H](O)[C@H](O)[C@H]3O)cccc21
0.0011 | CCOc1ccc(Cc2cc([C@@H]3O[C@H](CO)[C@@H](O)[C@H](O)[C@H]3O)ccc2C)cc1
3.85 | CC(C)(C)C(O)Cn1c(=N)n(Cc2ccccc2)c2ccccc21 (stereo not drawn)
4.6 | N=c1n(Cc2ccccc2)c2ccccc2n1CC(O)COc1ccccc1 (stereo not drawn)
0.012 | CCc1ccc(Cc2cc([C@@H]3O[C@H](CO)[C@@H](O)[C@H](O)[C@H]3O)ccc2C)cc1

These compounds were tested against T2, Sodium/glucose cotransporter 2 (Homo sapiens) (UniProt P31639) (assay: as §1).
T2 sequence (whole entry): T1 sequence (P31639 whole entry)
Format: cell-based

inhibition | Structure (SMILES)
Dose-dependent effect | COc1cc(C(Nc2cccc(C)n2)c2ccc3ccc(C)nc3c2O)cc(OC)c1OC (stereo not drawn)
Dose-dependent effect | CC(C)(C)C(O)Cn1c(=N)n(Cc2ccccc2)c2ccccc21 (stereo not drawn)
Dose-dependent effect | COc1ccc(NC(=S)NNC(=O)c2cc(-c3ccccc3)sc2N)cc1
